# Measured values published in patent publication US10882821B1, “Enantiomeric compound for the reduction of the deleterious activity of extended nucleotide repeat containing genes” (THE BOARD OF TRUSTEES OF THE LELAND STANFORD JUNIOR …, priority 2017, dated 2021).
# pIC50: −log10 of the molar value.
# How the values were obtained:
# [1] = test system: mutant HTT protein; assay: mutant HTT activity assay in induced pluripotent stem cells (Western blot); type: cell-based, human; conditions: HD patient iPSC; for effect on mutant HTT protein level in iPSC derived from a Huntington Disease patient: one day treatment, Western blot
# Procedure: 3. Mutant HTT Activity Assay in Induced Pluripotent Stem Cells (iPSC)
# Huntington disease patient iPSCs (ND36999 from Coriell Institute) were detached into single cells by Accutase (AT104 from Accutase) and plated on a 24-well plate coated with Matrigel (354277 from Corning). When the cells' confluency reaches about 70%, compounds are added to the cell culture medium StemMACS (130104368 from MiltenyiBiotec) and incubated with the cells for one day. Then the medium is removed and the cells are washed with PBS. After all liquid is removed, the plate is put in −80° C. for overnight. After taking out the plate from freezer, lysis buffer (30 mM Tris-HCl, pH 8.0, 5 mM NaCl, 0.1% Triton X-100) with complete proteinase inhibitor cocktail (5892791001 from Sigma-Aldrich) is immediately added to the cells. Cell samples are lysed on ice for 10 minutes. The supernatants from spinning (14 k rpm for 10 min) are collected. The protein concentrations are determined by BCA assay (Pierce, ThermoFisher). Equal amounts of protein are loaded onto 4-12% gel. After electrophoresis, the gels are transferred to nitrocellulose membranes by wet transfer at 35V for 16 hr. The protein level of mutant HTT, total HTT and tubulin are determined by immunoblotting with anti-poly Glutamine (MAB1574 from Millipore), anti-Huntingtin protein (MAB2166 from Millipore) and anti-alpha tubulin (AJ1034a from ABGENT). Blots are imaged on a Li-Cor Odyssey infrared imager. The bands intensities are determined by Li-Cor Odyssey software.
# Using the protocol reported above, iPSCs were treated with HD143 at various doses for 24 hr. The cells were collected and lysed for protein quantification. Equal amounts of protein were applied on SDS-PAGE gel for Western Blotting. Mutant HTT protein was recognized by polyQ antibody (MAB1574 from Millipore) while wild type HTT protein was blotted by anti-Huntingtin antibody (MAB2166 from Millipore). Both proteins were scanned and quantified by Li-Cor Odyssey and normalized by tubulin.
# [2] = test system: mutant HTT in lymphoblastoid cells GM14044; assay: HD lymphoblastoid cell assay to assess mutant HTT reduction; type: cell-based, human; conditions: 72 hours
# Procedure: 3. HD Lymphoblastoid Cell Assay to Assess Mutant HTT Reduction
# Lymphoblastoid cells GM14044, which are derived from Juvenile HD patient with around 250 CAG repeats in the mutant HTT allele, are used for lymphoblastoid cell assays. Lymphoblastoid cells are cultured as suspension cells. Right before the compound treatments, 5×10^5 cells/well are seeded into 24 well plate in 1.5 ml RPMI culture medium plus 10% fetal bovine serum. Compounds in serial dilutions are added into the well for the indicated final concentration. Cells are maintained in 37° C., 5% CO2 incubator for 72 hours
# b. Compound Effect in Reducing mHTT (IC50)
# The rest of the cell/medium mixture is removed from culture plate into a 1.5 ml microcentrifuge tube, then centrifuged at 2500 rpm for 2 minutes to remove the culture medium. Cell pallets are washed with 1×PBS, then stored at −80° C. until ready for Western blot analysis. Western blot analysis is performed as described above. The intensity of HTT from untreated cells is set as 100% and the IC50 of the compound is defined as the compound concentration at which the HTT protein was reduced to 50%.
# [3] = brain to plasma ratio after oral dose; type: in vivo; conditions: at 1 hour following a 5 mg/kg oral dose in rats
# [4] = molecular target: T1, interaction between Supt4h and NGN (subunit of Supt5h) (Homo sapiens, UniProt P63272); assay: split Gaussia luciferase complementation assay (M2-8 cells); type: cell-based; conditions: for pIC50: M2-8 cells, 24 hr treatment
# T1 construct: expressed in transfected cells
# Procedure: 1. Slit Gaussia Luciferase Complementation Assay […]
# i pNBR-X1-Supt4-Gluc1 and pNEBR-X1-NGN-Guc2
# The HA-Supt4hand Flag-NGN fragments are amplified by PR using the plasmid pHA-Supt4h-YC and pFlag-NGN-YN and sub-cloned individually into pcDNA3.1-Gluc1 and pcDNA3.1-GIuc2 (described in “A highly sensitive protein-protein interaction assay based on Gausssia Luciferase” published at Nat Methods. 2006 December; 3(12):977-9.Epub 2006 Nov. 12). Then HA-Supt4h-Gluc1 and Flag-NGN-Gluc2 are amplified by PCR and inserted to pNEBR-X1-Hygro (New England BioLabs), which contain RheoSwitch responsive element under the control of RheoSwitch ligand. […]
# ii: pNEBR-X1-Supt4h-G1-NGN-G2
# PCR products containing the sequence from 5XRE to polyA in pNEBR-X1-NGN-G2 are inserted to pNEBR-X1-Supt4h-G1 at Pcil site to generate Supt4h-G1 and NGN-G2 bidirectional under their own RheoSwitch responsive element and polyA in the same plasmid. […]
# b. Stable Cloned Cell Line i: 293-R1 is a cloned cell which is engineered to constitutively express RSL1 receptor/activator by transfecting HEK 293 cells with pNEBR-R1 plasmid (New England BioLabs) and selected with Blasticidin. […]
# ii: M2-8 is a cloned 293-R cell which can inducibly express pNEBR-X1-Supt4h-G1-NGN-G2 by addition of RSL1. Two point mutations (M431 and M1101) are introduced to the GL1 and GL2 for better stability according to “A high-throughput cell-based Gaussia luciferase reporter assay for identifying modulators of fibulin-3 secretion” published on J Biomol Screen. 2013 July; 18(6):647-58. The cell line is selected by Hygromycin. […]
# c. Cell Culture and Transfection Condition
# All the HEK-293 cells and derivative cell clones are maintained in DMEM containing 10% FBS plus corresponding antibiotics (250 μg/ml hygromycin B, 10 μg/ml blasticidin or both) at 37° C., 5% CO2. d. Bioluminescence Assay in Cell Lysates
# For stable cell M2-8, the cells are plated into 96 well white plate directly. 24 hours later, RheoSwitch ligand together with/without test compound is added to the cells for induction/drug treatment. After 24 hr, the cells are washed with PBS and the plate was put in −20° C. freezer for overnight. After taking out the plate from freezer, lysis buffer (30 mM Tris-HCl, pH 8.0, 5 mM NaCl, 0.1% Triton X-100) with 10 μg/ml native coelenterazine (Nanolight Technology) is immediately added to the cells. The cells are lysed at room temperature for one hour in dark. After shaking for about 1 min, the signal intensities (integrated 100 ms) from the plate were read on Tecan Infinite M200 or M1000.
# The split gaussia luciferase complementation assay measures the interaction between Sup4h and NGN. NGN is the subunit of Supt5h that binds to Supt4h. […] Therefore, administration of HD143 results in decreased production of mutant proteins encoded by genes that include mutant nucleotide repeats.
# [5] = test system: Gmr-Htt97Q Drosophila HD model (mutant Htt); assay: eye morphology (rough eye) analysis in Drosophila HD model; type: in vivo, Drosophila melanogaster; conditions: Gmr-Htt97Q/+ flies, 10 or 100 μM in media
# Procedure: The Drosophila melanogaster (fruit fly) HD models used in this set of experiments carry the coding sequence of human Httexon1 with 97 CAG repeats to mimic mutant Httof Huntington's disease (HD). The Gmr::Htt97Q fly, expressing mutant Htt primarily in the neurons of Drosophila compound eyes, has a severe degeneration of photoreceptor neurons and the phenotypic trait ‘rough eye’. All of the fly stocks and genetics crosses were maintained at 25° C. on standard cornmeal yeast agar media.
# 2. Eye Morphology (Rough Eye) Analysis
# 15 adult male flies (Gmr-Htt97Q/Gmr-Htt97Q or Gmr/Gmr) were crossed with 15 virgin female flies W1118(+/+) in a vial containing standard yeast agar media with testing compound (+)-HD143 in a concentration of 10 μM or 100 μM. Parent-flies were first removed from vials at day 7, followed by a collection of newly hatched flies for ‘rough eye’ analysis. The morphology of compound eyes was captured using a Leica DMR upright microscope equipped with a digital camera (CooISNAP 5.0, Photometrics). […]
# FIG. 4A. The morphology of compound eye was analyzed in fruit flies treated with or without (+)-HD143. […] To quantify the appearance of “rough eye” in Gmr-Htt97Q/+ treated with 10 and 100 μM of (+)-HD143, ten flies were randomly picked from each group and the number of flies with “rough eye” phenotype were determined under microscope. […]
Structure (SMILES),Dose to reduce mutant HTT in HD iPSC ([1]; 24 hr),effect on mutant HTT protein level in iPSC derived from a Huntington Disease patient [1],pIC50 [2],[Brain]/[Plasma] [3],pIC50 [4],effect on Supt4h/NGN interaction ([4]; split Gaussia luciferase complementation assay),effect on neuron degeneration phenotypes (rough eye) of mutant Htt in Drosophila HD models [5],effect on neuron degeneration phenotypes (rough eye) of mutant Htt in Drosophila HD models ([5]; listed as (+)-HD143),"fold more potent than racemic HD143 ([4]; ratio of IC50 values, split Gaussia luciferase assay) [fold]"
"Brc1ccc2[nH]c3c(c2c1)CCCC3NCc1ccccc1 (racemic) [racemic HD143, N-benzyl-6-bromo-2,3,4,9-tetrahydro-1H-carbazol-1-amine]",>=60 nm,decreases mutant HTT protein,7.05,9 at 1 hour following a 5 mg/kg oral dose in rats,7.52,interrupts the interaction between Sup4h and NGN,,,
"Brc1ccc2[nH]c3c(c2c1)CCC[C@H]3NCc1ccccc1 [(R)-(+)-HD143, (R)-(+)-N-benzyl-6-bromo-2,3,4,9-tetrahydro-1H-carbazol-1-amine]",,significantly reduced mutant HTT protein level,,,7.82,,alleviates neuron degeneration phenotypes,Alleviates Neuron Degeneration Phenotypes,2
"Brc1ccc2[nH]c3c(c2c1)CCC[C@@H]3NCc1ccccc1.Cl [(S)-(−)-HD143, (S)-(−)-N-Benzyl-6-bromo-2,3,4,9-tetrahydro-1H-carbazol-1-amine Hydrochloride]",,showed no activity,,,6.05,,,,
